Here are results for three compounds from patent US20260174860A1, “HYBRID COMPOUNDS OF SCLAREOL AND DOXORUBICIN, THEIR SYNTHESIS AND APPLICATION” (INSTITUTE FOR BIOLOGICAL RESEARCH "SINISA STANKOVIC" - …, priority 2023, published 2026).

Holding throughout (assay): MTT test of cell viability, 72 h treatment
Format in all cases: cell-based
Background: Formazan colour is commonly taken as a measure of viable cells.

Experiment [1] deals with NCI-H460 human non-small cell lung carcinoma cell line. The note with it: for IC50: MTT, 72 h; for Selectivity Index: ratio IC50 MRC-5 (2,000 cells per well) / IC50 NCI-H460. As for the experimental part:
(§1) The MTT test was used to evaluate the effect of the compounds on cell viability. The test relies on the reduction of tetrazolium salt (MTT) to formazan, which is catalyzed by the mitochondrial enzyme succinate dehydrogenase. The activity of succinate dehydrogenase, which is indicative of mitochondrial respiration, is taken as an indirect measure of the metabolic activity of the cell, and thus its viability. The MTT-formazan produced is a purple-colored product, whose absorbance is measured at a wavelength of 570 nm. • a) To determine the inhibition of cell growth by SC, different cell lines were exposed to increasing concentrations of SC (5, 10, 25, 50, and 100 μM). The cells were seeded in 96-well microtiter plates at a density of 2,000 cells per well for NCI-H460, NCI-H460/R, DLD1 and DLD1-TxR, and 4,000 cells per well for MRC-5, U87, U87-TxR, and U251 in 100 μL of the appropriate medium. Control cells that received no treatment were also seeded at the same time. After 24 h for adaptation, the cells were treated with various concentrations of SC. After 72 h of treatment, 0.2 mg/ml MTT was added to each well in the appropriate cell culture medium. After 4 h of incubation at 37° C. with 5% CO2, the medium was removed, and 100 μL of DMSO were added to each well, to dissolve the formazan. The absorbance of the samples was measured at 570 nm using a Multiskan Sky Microplate spectrophotometer (ThermoFisher Scientific, USA). The results were analyzed using GraphPad Prism 8.0.2. software, and the IC50 values were determined by non-linear regression. • b) To test the interaction between SC and DOX in terms of cytotoxicity in different cell lines, cells were seeded in 96-well microtiter plates at a density of 2,000 cells per well for NCI-H460, NCI-H460/R, DLD1 and DLD1-TxR, and 4,000 cells per well for MRC-5, U87, U87-TxR, and U251 in 100 μl of the appropriate medium. SC (10 and 20 μM) was combined with increasing concentrations of DOX (20, 50, 100, 200, and 500 nM). The cells were treated with the simultaneous combinations for 72 h. After this period, 0.2 mg/ml MTT was added to each well, followed by 4 hours of incubation at 37° C. with 5% CO2. The medium was then removed, and DMSO was added to each well to dissolve the formazan.
(§2) The analysis was carried out using GraphPad Prism software version 8.0.2 to determine the nature of the interaction, namely synergistic, antagonistic, or additive, between compounds. This was done using the computer software CalcuSyn, which is based on the combination index method. The method takes into account the concentration of compounds, the individual effect of each compound, as well as the effect of two compounds in combination. The values of the combination indices (CI) describe the nature of the interaction: Cl<0.9 indicates synergism, Cl>1.1 indicates antagonism, and Cl=0.9-1.1 indicates an additive effect. • c) To compare the resistance and selectivity profiles among SC, DOX, CON1, and CON2, human glioblastoma cell lines U87, U87-TxR, and MRC-5 were seeded at a density of 4,000 cells per well in 100 μL of the appropriate medium. In contrast, NCI-H460, NCI-H460/R, and MRC-5 were seeded at a density of 2,000 cells per well in 100 μL of the proper medium. The effect of SC derivatives LIG1 and LIG2 was also examined. The range of concentrations differed among the cell lines and the compounds. For LIG1 and LIG2, the range of concentrations for all cell lines was 50, 100, 200, 300, and 400 μM, while the same range was used for the MRC-5 in the case of SC, CON1, and CON2. DOX concentrations ranged 0.1, 0.25, 0.5, 1, and 2.5 μM for U87 and NCI-H460, and 0.25, 0.5, 1, 2.5, and 5 μM for U87-TxR, NCI-H460/R, and MRC-5. […] concentrations used for SC, CON1, and CON2 treatments varied in the range 1, 2.5, 5, 10, 25, 50, and 100 μM. The treatment lasted 72 h. After the treatment period, 0.2 mg/ml MTT in the appropriate cell culture medium was added to each well. […]

In experiment [2] the test system is U87 human glioblastoma cell line. The note with it: for IC50: MTT, 72 h; for Selectivity Index: ratio IC50 MRC-5 (4,000 cells per well) / IC50 U87. As for the experimental part: as §1, §2
Experiment [3] concerns MRC-5 human lung fibroblast cell line. As for the experimental part: as §1
(§3) The absorbance of the samples was measured at 570 nm using a Multiskan Sky Microplate spectrophotometer.
as §2, with “h.” for “h. After the treatment period, 0.2 mg/ml MTT in the appropriate cell culture medium was added to each well.”

In experiment [4] the test system is NCI-H460/R resistant human non-small cell lung carcinoma cell line. The note with it: for IC50: MTT, 72 h, MDR line; for Relative Resistance: ratio IC50 NCI-H460/R / IC50 NCI-H460. As for the experimental part:
as §1, §3
as §2, with “h.” for “h. After the treatment period, 0.2 mg/ml MTT in the appropriate cell culture medium was added to each well.”

Experiment [5] relates to U87-TxR resistant human glioblastoma cell line. The note with it: for IC50: MTT, 72 h, MDR line; for Relative Resistance: ratio IC50 U87-TxR / IC50 U87. On the procedure:
as §1, §3
as §2, with “h.” for “h. After the treatment period, 0.2 mg/ml MTT in the appropriate cell culture medium was added to each well.”

[6] abbreviates: Homo sapiens, NCI-H460, DOX only.

Turning to `C=C[C@](C)(O)CC[C@@H]1[C@@]2(C)CCCC(C)(C)[C@@H]2CC[C@@]1(C)O` [SC, sclareol], the IC50 (usually the concentration needed to halve the response being measured) in experiment [1] (Homo sapiens, NCI-H460) was found to be 40.3 µM; in experiment [2] (Homo sapiens), 51.6 µM; in experiment [3] (Homo sapiens, MRC5, 72 h, 2,000 cells per well (non-small cell carcinoma experiments)), 64.1 µM; in experiment [3] (Homo sapiens, MRC5, 72 h, 4,000 cells per well (glioblastoma experiments)) it was 75.9 µM; in experiment [4] (Homo sapiens, NCI-H460), 47.4 µM; in experiment [5] (Homo sapiens, U87-TxR) it was 39.2 µM. Besides, the “Selectivity Index” value in experiment [1] is reported as 1.6; in experiment [2], 1.5. Also, the “Relative Resistance” value is 1.2 in experiment [4] and 0.8 in experiment [5].
For “N1-((25,3S,4S,6R)-3-hydroxy-2-methyl-6-(((1S,3S)-3,5,12-trihydroxy-3-(2-hydroxyacetyl)-10-methoxy-6,11-dioxo-1,2,3,4,6,11-hexahydrotetracen-1-yl)oxy)tetrahydro-2H-pyran-4-yl)-N4-(3-((4-((R,E)-3-hydroxy-5-((1R,2R,4aS,8aS)-2-hydroxy-2,5,5,8a-tetramethyldecahydronaphthalen-1-yl)-3-methylpent-1-en-1-yl)benzyl)amino)propyl) succinamide [CON1]”, the IC50 is 9.8 µM in experiment [1]; 8.8 µM in experiment [2]; 72.6 µM in experiment [3] (2,000 cells per well (non-small cell carcinoma experiments)); 137 µM in experiment [3] (4,000 cells per well (glioblastoma experiments)); 38.4 µM in experiment [4]; 28.7 µM in experiment [5]. In addition, the “Selectivity Index” value in experiment [1] worked out at 7.4; in experiment [2] it was 15.6. The “Relative Resistance” value in experiment [4] was determined as 3.9; in experiment [5], 3.3.
In the case of `COc1cccc2c1C(=O)c1c(O)c3c(c(O)c1C2=O)C[C@@](O)(C(=O)CO)C[C@@H]3O[C@H]1C[C@H](N)[C@H](O)[C@H](C)O1` [DOX, doxorubicin], the IC50 is 0.128 µM in experiment [1] (setting [6]); 0.1 µM in experiment [2] (Homo sapiens, DOX only); 0.588 µM in experiment [3] (Homo sapiens, MRC5, 72 h, 2,000 cells per well (non-small cell carcinoma experiments), DOX only); 0.295 µM in experiment [3] (Homo sapiens, MRC5, 72 h, 4,000 cells per well (glioblastoma experiments), DOX only); 2.5 µM in experiment [4] (setting [6]); 1.32 µM in experiment [5] (Homo sapiens, U87-TxR, DOX only). For the same compound, the “Selectivity Index” value in experiment [1] is listed as 4.6; in experiment [2], 2.9. The entries for the “Relative Resistance” value in experiment [4] and in experiment [5] were 19.6 and 13.2, respectively.
